Data: patent publication US6511804B1, “Selective assay for determining the identity of live microorganisms in a mixed culture” (priority 1998, dated 2003)
Where two headings read alike, the source gives them in different places.

Tests used:
E. coli = format: cell-based
P. mirabilis = assay: Ampicillin resistance of the P. mirabilis strain; format: cell-based, Proteus mirabilis; settings: P. mirabilis strain used in these studies
E. coli (C600) [1] = assay: Mixed culture P. mirabilis:E. coli 50:1 with ampicillin, BrdU immunocapture and FlaA PCR; format: cell-based; settings: 50:1 P. mirabilis:E. coli; L-broth with 5, 10, or 20 μg/ml ampicillin
E. coli (C600) [2] = assay: Ampicillin sensitivity of E. coli C600 as stated; format: cell-based
E. coli strain W3110 = assay: Growth curves of E. coli strain W3110 in L-broth with antibiotic or BrdU; format: cell-based; settings: FIG. 3
[3] = test system: H. actinomycetemcomitans (ATCC No. 43718); assay: BrdU immunocapture/PCR antibiotic sensitivity of H. actinomycetemcomitans; format: cell-based, Haemophilus actinomycetemcomitans; settings: anaerobic culture; FIG. 8
Description: H. actinomycetemcomitans is reported to be a human pathogen, and has been implicated in juvenile periodontitis. In these studies, a culture of H. actinomycetemcomitans (ATCC No. 43718; previously known as Actinobacillus actinomycetemcomitans) was grown to saturation under anaerobic conditions as in part A, above, except that hemin was not added to the medium. The culture was diluted 1:10 into fresh media, and grown for a further 4 hours under anaerobic conditions. At this point, the culture was divided into aliquots and subjected to the same testing protocol as was employed in part A of this Example, except that after the BrdU was added, the 2 hour incubation was followed for convenience by overnight storage under refrigeration at 4° C. The next day, the aliquoted cultures were lysed by the NaOH lysis protocol described above, PCR was performed, and the capture probe set forth in Table 1 for this organism was employed.

[4] = test system: T. denticola (ATCC number 35405); assay: BrdU immunocapture/PCR antibiotic sensitivity of Treponema denticola; format: cell-based; settings: FIG. 9; for BrdU incorporation / immunocapture PCR signal: T. denticola; for sensitivity or resistance of T. denticola: anaerobic culture, no negative immunocapture control
Description: Treponema denticola was also studied using the invention. In these studies, a culture of T. denticola (ATCC number 35405) was inoculated into fresh media and grown anaerobically for 1 day in NOS media (ATCC media formulation 1494). The cultures were grown as in Part A of this Example, except that the cultures were incubated for about 8 hours prior to the addition of BrdU, they were incubated overnight after the addition of BrdU, and the samples were analyzed the next day. The PCR was conducted in the manner described above, except that a GroEL primer set was not available and a primer set for the FlgE gene (endoflagellar subunit protein) referred to FlgE001 and FlgE006 was substituted. These primers were expected to give rise to a 542 bp PCR fragment.

[5] = test system: Porphyromonas gingivalis (ATCC No. 33277); assay: BrdU immunocapture/PCR antibiotic sensitivity of Porphyromonas gingivalis; settings: anaerobic culture; 2 hours antibiotic then 2 hours BrdU; FIG. 7
E. coli strain NK5830 [6] = format: cell-based; settings: antibiotic at final concentration 100 μg/ml, FIG. 3
E. coli strain NK5830 [7] = assay: BrdU immunocapture/PCR antibiotic sensitivity assay, strain NK5830; settings: antibiotic 100 μg/ml, FIG. 4

Compound: gentamycin
- effect on the growth of E. coli (E. coli; compared to controls grown in the absence of the antibiotic): greatest effect

Compound: [H]/N=C(/N)N[C@H]1[C@H](O)[C@@H](O)[C@H](O[C@@H]2O[C@@H](C)[C@](O)(C=O)[C@H]2O[C@@H]2O[C@@H](CO)[C@H](O)[C@@H](O)[C@@H]2NC)[C@@H](N/C(N)=N\[H])[C@@H]1O [Streptomycin]
- effect on the growth of E. coli (E. coli): little or no effect

Compound: CC1(C)S[C@@H]2[C@H](NC(=O)[C@H](N)c3ccccc3)C(=O)N2[C@H]1C(=O)O [Ampicillin]
- detectable BrdU compared to the control (E. coli; E. coli strain W3110): lack of detectable BrdU compared to the control
- effect on cells (lysis) (E. coli; E. coli strain W3110): lysed
- ampicillin concentration to which the strain is resistant (P. mirabilis): over 400 μg/ml
- PCR products obtained (E. coli 1 kb / P. mirabilis 800 bp) (E. coli (C600) [1]): only the P. mirabilis PCR product
- sensitivity to ampicillin (E. coli (C600) [2]): extremely sensitive

Compound: O=c1[nH]c(=O)n([C@H]2C[C@H](O)[C@@H](CO)O2)cc1Br [BrdU, 5-bromo-2′-deoxyuridine]
- growth profile after addition of BrdU (E. coli strain W3110; BrdU added at 2.5 hours): did not change the growth profile

Compound: Cc1ncc([N+](=O)[O-])n1CCO [metronidazole]
- sensitivity or resistance of H. actinomycetemcomitans [3]: resistance
- BrdU incorporation / immunocapture PCR signal [4]: level of BrdU incorporation is at background
- sensitivity or resistance of T. denticola [4]: sensitive
- sensitivity or resistance of P. gingivalis [5]: sensitive

Compound: CCn1cc(C(=O)O)c(=O)c2ccc(C)nc21 [nalidixic acid]
- growth (growth curve) (E. coli strain W3110; antibiotic at final concentration 100 μg/ml): inhibited growth
- growth (growth curve) (E. coli strain NK5830 [6]): did not cause any growth inhibition
- effect on the growth of E. coli (E. coli): greatest effect
- sensitivity or resistance of H. actinomycetemcomitans [3]: sensitivity
- BrdU incorporation / immunocapture PCR signal [4]: equivalent to the positive control
- sensitivity or resistance of T. denticola [4]: resistant
- immunocapture/PCR signal (BrdU-labeled DNA, gel) (E. coli strain NK5830 [7]): strong positive signal
- sensitivity or resistance of P. gingivalis [5]: resistant

Compound: O=C(N[C@H](CO)[C@H](O)c1ccc([N+](=O)[O-])cc1)C(Cl)Cl [Chloramphenicol]
- effect on the growth of E. coli (E. coli): significantly reduced growth
